Laboratory results from US10690657B2, “Epithelial tissue model” (Nederlandse Organisatie voor …, priority 2012, dated 2020).

Columns and labels:
porcine jejunal tissue [1] = experiment: Transport (apical to basolateral) across porcine jejunal tissue, Papp; settings: animal of 12 kg body weight in comparison to an animal of 17 or 20 kg (FIG. 10)
Excerpt: (§1) After anesthesia of the animal and resection of intestinal tissue, the tissue was directly added to ice-cold carbonated (5% CO2 and 95% O2) KRB buffer, pH 7.4, further referred to as KRB buffer. • 2. Intestinal tissue was transported to the test site in ice-cold KRB buffer • 3. At the test site, the intestinal tissue was cut open, rinsed with ice-cold KRB buffer when needed, placed on a petridish, submerged in ice-cold KRB buffer and muscle layers were stripped of. • 4. Intestinal segments with a diameter of 20 mm were punched, added to ice-cold KRB buffer, and kept on ice. • 5. After collecting all the segments needed for the incubation, the system was assembled (including to a total of 24 segments per system) and placed on ice. […] Subsequently, samples were taken from the apical and basolateral compartments for further analysis either using liquid scintillation counting (LSC), UV-Absorbance, Fluorescence, High Pressure Liquid Chromatography (HPLC), Liquid chromatography-Mass Spectrometry (LCMS), Liquid chromatography-Tandem Mass Spectrometry (LC-MSMS), Enzyme-Linked Immunosorbent Assay (ELISA), or Radio-Immuno Assay (RIA). • 11. […]
(§2) The apparent permeability value (Papp) is calculated using the following equation: Papp=(dQ/dt)/(A*C0), where dQ/dt refers to the permeability rate (mol/s), A is the surface area filter insert (cm2) and C0 is the initial concentration (mol/L). […]

porcine jejunal tissue [2] = system: porcine jejunal tissue
Excerpt: as §1, §2

porcine ileal tissue = experiment: Translocation across porcine ileal tissue; format: in vitro ADME; settings: between 0 and 60 minutes (FIG. 11)
Method: Translocation of the bacterial endotoxin lipopoly-saccharide (LPS) across the porcine ileal tissue during incubation time.

Cn1c(N)nc2ncc(-c3ccccc3)cc21 [[14C]-PhIP, 2-amino-1-methyl-6-phenylimidazo[4,5-b]pyridine]
Transport across porcine jejunal tissue from animals with a different age (porcine jejunal tissue [1]): higher transport

Cn1c(=O)c2c(ncn2C)n(C)c1=O [caffeine]
Apparent permeability (Papp) over time (porcine jejunal tissue [2]): constant Papp value over time

lipopolysaccharide [LPS]
Lag time of transport across porcine ileal tissue (porcine ileal tissue): clear lag time of transport
